Reference: EP1053750A1, “Use of proteasome-inhibitor for the induction of programmed cell death (apoptosis)” (Max-Planck-Gesellschaft zur Förderung der Wissenschaften …, priority 1999, dated 2000)
Peptide text beside a SMILES is read from it. * marks the point of attachment. Cbz = O=C(OCc1ccccc1)*; OtBu = CC(C)(C)O*

Assays:
[1] = system: HUE cells; assay: DNA fragmentation assay; type: cell-based, human; settings: 10 µM PSI for 18 hours, agarose gel
Method: • a. Analysis of PSI-induced DNA fragmentation by agarose gel electrophoresis. […] Neither caspase inhibitor (Ac-YVAD-CHO 250 µM, lane 4; Ac-DEVD-CHO 250 µM, lane 5) nor DMSO (lane 6) induced the characteristic pattern of DNA fragmentation. M1 and M2: DNA size markers (kb). • b. Immunoblot analysis of HUE cell lysates after incubation with PSI. […] Equal loading was controlled by using an antibody directed against GAPDH enzyme.
HUE cells which had been plated at 20000 cells/cm^2 24 hours before the assay, were treated with 250 µM of the caspase inhibitors Ac-YVAD-CHO or Ac-DEVO-CHO (Peptide Institute, Osaka, Japan) or the equivalent volume of dimethylsulfoxide (DMSO) for 1 h prior to additon of the proteasomal inhibitors. Incubation of the cells was continued for a further 18 h and the extent of DNA fragmentation was analyzed as previously described with some minor modifications (Hockenberry et al., Nature 348 (1990), 334 - 336). Briefly, both the floating cells and the adherent cells which were detached by trypsinization, were lysed in a solution containing 0.5% Triton X100, 10 mM EDTA and 10 mM Tris-HCL pH 7.5 for 30 min on ice. To separate the intact chromatin from the oligonucleosomal fragments, the lysate was centrifuged at 13000 g for 10 min at 4°C and the resulting supernatant was sequentially extracted with phenol followed by phenol/chloroform/iso-amylalcohol (25:24:1; v/v/v). Low molecular weight DNA was precipitated by the addition of 0.5 vol 7 M ammonium acetate and 2.5 vol ice-cold ethanol. The precipitate was washed in 75% ethanol, dissolved in TE-buffer, containing RNase A (20 µg/ml; Boehringer Mannheim), incubated for 30 min at 37°C and subjected to electrophoresis on 1.5% agarose gels.

[2] = system: caspase-3 like activity; assay: Caspase activity in lysates of treated HUE cells, substrate Ac-DEVD-AMC; type: cell-based, human; settings: HUE cell lysates, 50 µM
Method: Subconfluent endothelial cells were incubated with the inhibitors for the indicated times, lysed and caspase activities determined using Ac-DEVD-AMC for caspase-3-like enzymes and Ac-YVAD-AMC for caspase-1-like activities as described in the Material and Methods section (PSI, filled circles; LLnM, open square; E64, open triangles; Leupeptin, filled triangles; Pepstatin, filled squares). The specific caspase activities are shown as pmol of substrate hydrolyzed/min per µg of protein.
HUE cells (8 x 10^5) were plated onto 10 cm plastic dishes, allowed to attach overnight, and inhibitors were added to a final concentration of 50 µM for the times indicated in Fig. 4. DMSO, which served as the vehicle, was added to a final concentration of 0.1%. Floating and adherent cells were then harvested, lysed in Buffer I (1% Triton X100, 10 mM KCl, 20 mM HEPES pH 7.4, 1.5 mM MgCl2, 0.2 mM EGTA, 1 mM PMSF), snap frozen in liquid nitrogen and stored at -80°C until required. Lysates were centrifuged at 13000 g for 5 min at 4°C, the supernatants collected and protein concentrations determined using the BCA assay. […] Specific activity was expressed as pmol AMC liberated per min and per µg protein in comparison to a standard curve calculated from the amount of free AMC (SIGMA, Deisenhofen, Germany).

CC[C@H](C)[C@H](NC(=O)OCc1ccccc1)C(=O)N[C@@H](CCC(=O)OC(C)(C)C)C(=O)N[C@@H](C)C(=O)N[C@H](C=O)CC(C)C [PSI, carbobenzoxy-L-isoleucyl-y-t-butyl-L-glutamyl-L-alanyl-L-leucinal] (Cbz-IE(OtBu)AL-aldehyde)
DNA fragmentation (DNA ladder formation) [1]: induced DNA ladder formation | time of maximum of Ac-DEVD-AMC cleavage [2]: 15 h
